# Reference: the supplement of paper PMC10307832
# What was measured:
# Test in all cases: relative viability (nuclei count vs DMSO), 5 days (fraction); higher = more cells survive
# AGI-6780 + Lapatinib = compound: O=C(Nc1cccc(C(F)(F)F)c1)Nc1cc(S(=O)(=O)NC2CC2)ccc1-c1ccsc1 [AGI-6780] + CS(=O)(=O)CCNCc1ccc(-c2ccc3ncnc(Nc4ccc(OCc5cccc(F)c5)c(Cl)c4)c3c2)o1 [Lapatinib] (partner 2 µM)
# Outline: (§1)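 Each reported value is a median over duplicate plates. It expresses relative viability: treated-well nuclei count divided by vehicle-well nuclei count. Lung cancer cell lines in 1536-well plates were dosed by pin tool a day after seeding, alone with one drug or with a fixed anchor-drug dose plus five library-drug doses (not always all listed) in √10 steps, and nuclei were counted after 5 days.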
# AGI-6780 + Olaparib = compound: O=C(Nc1cccc(C(F)(F)F)c1)Nc1cc(S(=O)(=O)NC2CC2)ccc1-c1ccsc1 [AGI-6780] + O=C(c1cc(Cc2n[nH]c(=O)c3ccccc23)ccc1F)N1CCN(C(=O)C2CC2)CC1 [Olaparib] (partner 8 µM)
# Outline: as §1
# AGI-6780 + Phenformin = compound: O=C(Nc1cccc(C(F)(F)F)c1)Nc1cc(S(=O)(=O)NC2CC2)ccc1-c1ccsc1 [AGI-6780] + N=C(N)NC(=N)NCCc1ccccc1 [Phenformin] (partner 250 µM)
# Outline: as §1
# AGI-6780 + Trametinib = compound: O=C(Nc1cccc(C(F)(F)F)c1)Nc1cc(S(=O)(=O)NC2CC2)ccc1-c1ccsc1 [AGI-6780] + CC(=O)Nc1cccc(-n2c(=O)n(C3CC3)c(=O)c3c(Nc4ccc(I)cc4F)n(C)c(=O)c(C)c32)c1 [Trametinib] (partner 0.02 µM)
# Outline: as §1
Cell Line,relative viability (AGI-6780 + Lapatinib; first compound 0.08 µM),relative viability (AGI-6780 + Lapatinib; first compound 0.253 µM),relative viability (AGI-6780 + Lapatinib; first compound 0.8 µM),relative viability (AGI-6780 + Lapatinib; first compound 2.53 µM),relative viability (AGI-6780 + Lapatinib; first compound 8 µM),relative viability (AGI-6780 + Olaparib; first compound 0.08 µM),relative viability (AGI-6780 + Olaparib; first compound 0.253 µM),relative viability (AGI-6780 + Olaparib; first compound 0.8 µM),relative viability (AGI-6780 + Olaparib; first compound 2.53 µM),relative viability (AGI-6780 + Olaparib; first compound 8 µM),relative viability (AGI-6780 + Phenformin; first compound 0.08 µM),relative viability (AGI-6780 + Phenformin; first compound 0.253 µM),relative viability (AGI-6780 + Phenformin; first compound 0.8 µM),relative viability (AGI-6780 + Phenformin; first compound 2.53 µM),relative viability (AGI-6780 + Phenformin; first compound 8 µM),relative viability (AGI-6780 + Trametinib; first compound 0.08 µM),relative viability (AGI-6780 + Trametinib; first compound 0.253 µM),relative viability (AGI-6780 + Trametinib; first compound 0.8 µM),relative viability (AGI-6780 + Trametinib; first compound 2.53 µM),relative viability (AGI-6780 + Trametinib; first compound 8 µM)
NCI-H1755,1.03,0.959,0.984,0.936,1.04,0.912,0.868,0.852,0.766,0.83,0.637,0.683,0.611,0.576,0.633,0.721,0.775,0.723,0.737,0.802
NCI-H23,1.17,1.26,1.45,0.931,1.15,0.302,0.271,0.288,0.354,0.349,0.822,0.747,0.766,0.719,0.784,0.394,0.39,0.375,0.272,0.494
NCI-H838,1.18,0.99,1.05,0.871,1.23,0.844,0.771,0.836,0.712,0.735,0.644,0.637,0.643,0.516,0.631,0.505,0.517,0.481,0.474,0.531
NCI-H2009,0.952,0.889,0.976,0.917,0.959,0.643,0.745,0.67,0.644,0.625,0.432,0.426,0.496,0.518,0.47,0.264,0.272,0.243,0.202,0.225
NCI-H596,0.841,1.13,1.05,0.886,1.08,0.749,0.765,0.704,0.625,0.791,0.739,0.876,0.758,–,0.752,0.841,0.712,0.655,0.652,0.777
201T,1.03,1.01,1.02,1.01,1.02,0.869,0.837,0.84,0.871,0.775,0.495,0.41,0.486,0.427,0.492,0.705,0.731,0.715,0.72,0.773
NCI-H358,0.517,0.6,0.473,0.375,0.417,0.692,0.64,0.834,0.452,0.636,0.363,0.317,0.438,0.35,0.394,0.139,0.174,0.132,0.112,0.136
NCI-H1651,0.83,0.911,0.959,0.805,1.04,0.187,0.181,0.169,0.169,0.18,0.331,0.362,0.394,0.335,0.37,0.816,0.82,0.833,0.73,0.839
LU99A,1.12,0.98,0.976,0.825,1.03,0.255,0.289,0.178,0.243,0.287,0.866,0.747,0.815,0.773,0.79,0.547,0.572,0.431,0.44,0.534
LC-2-ad,0.943,1.04,0.979,1.02,0.958,0.782,0.707,0.764,0.674,0.727,0.623,0.59,0.605,0.54,0.505,0.917,0.873,0.931,0.964,0.917
NCI-H1975,0.861,1.01,0.801,0.875,0.951,0.78,0.731,0.804,0.722,0.806,0.437,0.427,0.41,–,0.395,0.369,0.348,0.29,0.207,0.322
NCI-H322M,0.638,0.57,0.608,0.552,0.626,–,0.773,0.744,0.747,0.874,0.755,0.788,0.816,0.808,0.85,–,0.525,0.525,0.547,0.499
NCI-H1666,0.784,0.597,0.578,–,0.73,0.703,0.714,0.734,0.766,0.75,0.51,0.573,0.534,0.554,0.618,0.936,0.885,0.836,0.776,0.93
EKVX,0.234,0.19,0.217,0.192,0.216,0.894,0.811,0.935,0.763,0.863,0.23,0.245,0.252,0.25,0.251,0.32,0.383,0.392,0.386,0.312
NCI-H1355,1.03,1.04,0.944,0.685,0.96,0.838,0.791,0.773,0.65,0.71,0.485,0.451,0.484,0.393,0.448,0.426,0.496,0.465,0.354,0.404
PC-3 [JPC-3],0.467,0.513,0.451,0.416,0.48,–,1.09,1.11,1.18,0.962,0.51,0.483,0.479,0.502,0.496,–,0.582,0.701,0.744,0.626
